In series [1] the test system is DSS-induced colitis model mice. As to the kind of experiment: DSS-induced colitis model mice (body weight, disease score, survival, colon length, histology). The series is classed as in vivo, Male C57BL/6J Jms Slc mice. As to the method: Male C57BL/6J Jms Slc mice (8-week old) were fed with 4% dextran sulfate sodium (DSS) in water in place of drinking water for 9 days, followed by feeding drinking water for 3 days, inducing colitis in the mice. Mice were divided into three groups: (1) CRP40 group administered orally with CHP monohydrate (40 mg/kg body weight/day); (2) CycloZ40 group administered orally with a combination of CHP monohydrate 40 mg/kg+Zn gluconate 70 mg/kg; and (3) vehicle (control) group fed with drinking water. CHP hydrate and combination of CHP hydrate+Zn gluconate were administered to the animals starting from 3 days prior to the DSS administration and continued for 12 days until the animals were sacrificed. The above amount of the CHP monohydrate and the combination of CHP monohydrate and Zn gluconate were administered daily.
At day 12, the animals were sacrificed and their colon lengths were measured.
The intestinal tissues were fixed, paraffin-embedded, and stained with hematoxylin and eosin.
Histopathological evaluation of colon was scored according to the grading system listed below.

Series [2] deals with muscle tissues and intestinal segments. The following applies: cited from earlier work.
Series [3] is described as follows: pKa of CHP hydrate material. The series is classed as physicochemical.

Each structure is given as a SMILES string. “Also recorded” adds a separate entry of the source.

As usually defined, the pKa is the negative logarithm of the acid dissociation constant.

Take `O=C1N[C@@H](Cc2cnc[nH]2)C(=O)N2CCC[C@@H]12` [CHP, Cyclo(-His-Pro)]: the protection of intestine result in series [1] (CHP alone 40 mg/kg/day as monohydrate compared with combination of CHP 40 mg/kg/day and Zn 70 mg/kg as zinc gluconate) was “greater protection of intestine”. Further, the “zinc absorption and uptake” value in series [2] is “enhanced zinc absorption and uptake”.
As for `O=C1N[C@@H](Cc2cnc[nH]2)C(=O)N2CCC[C@@H]12` [CRP40, CHP monohydrate], the histological scores result in series [1] (DSS-induced colitis mice, compared with control (vehicle) group) is given as “histologically more resistant to intestinal inflammation”. Moreover, the “histological examination of intestinal tissue (H&E)” value in series [1] (DSS-induced colitis mice, epithelial lining, submucosa thickness, lymphatic infiltration, compared with vehicle group) is “protected from intestinal tissue damage”. Moreover, the survival rate entry in series [1] (DSS-induced colitis mice, experimental period of 14 days, CHP monohydrate 40 mg/kg/day, or plus Zn gluconate 70 mg/kg, about 70% of vehicle group died) is given as “survived until the end of the experiment”. Also, the “weight loss (body weight changes)” value in series [1] (DSS-induced colitis mice, oral daily CHP monohydrate 40 mg/kg/day, day 12, compared with CycloZ40 and vehicle groups) is “the least”. Moreover, the “disease score (disease activity: weight loss, stool consistency, blood)” value in series [1] (DSS-induced colitis mice, oral daily CHP monohydrate 40 mg/kg/day, day 12, compared with CycloZ40 and vehicle groups, monohydrate) was “greatly improved; also recorded: the lowest”. Further, in series [1] (DSS-induced colitis mice, sacrificed at day 12, compared with vehicle and CycloZ40 groups), the colon length result is “longest”. This compound also showed a pKa in series [3] of approximately 6.4.

The values above are taken from patent US20220054541A1, “METHOD FOR TREATING INFLAMMATORY BOWEL DISEASES” (NovMetaPharma Co., Ltd., priority 2020, published 2022).
